Measurements as given in patent US10221227B2, “Peptide for promoting osteogenic differentiation or vascularization and use thereof” (INDUSTRY FOUNDATION OF CHONNAM NATIONAL UNIVERSITY, priority 2015, dated 2019).
Ends that are not written are not given here.

What was measured:
VEGF = experiment: Effect on vascularization: expression of VEGF (FIG. 9); format: cell-based; settings: cells treated with BFP 5; alongside VEGF, FGF, SDF-1a, SDF-1g
mesenchymal stem cells = experiment: Measurement of mineralization by Alizarin Red staining; format: cell-based, Balb/c mouse; settings: cells added with 1 μg/μL of BFP 5; tested at 0.01, 0.1, 1 and 10 μg/μL, osteogenic differentiation medium, two additional days
Protocol: Mesenchymal stem cells (1×10^4), which were cloned from Balb/c mouse bone marrow stromal cells) were aliquoted into 10% FBS-containing DMEM and cultured in an atmosphere (about 37° C., 5% CO2) for 3 days, and thereby the mesenchymal stem cells to be used as osteoblasts in the present experiment were prepared. Osteogenic differentiation medium (hereinafter, “ODM”) consists of DMEM which contains 50 μg/mL of ascorbic acid, 10^−8 M dexamethasone, 10 mM β-glycerophosphate, etc.
The differentiation of the mesenchymal stem cells into osteoblasts causes calcium accumulation. Here, the degree of calcium accumulation refers to the degree of differentiation of osteoblasts, and the degree of accumulation of calcium ions can be confirmed by observing the degree of staining of the cells that are stained red, via Alizarin Red staining. In this regard, the mineralization was measured via Alizarin Red staining. That is, as the differentiation into osteoblasts are promoted there are more regions that can be stained by Alizarin Red. Accordingly, the degree of osteogenic differentiation can be confirmed by adding Alizarin Red to the osteogenic differentiation medium, treating with the peptide of SEQ ID NO: 1 (BFP 5), and observing the degree of Alizarin Red staining. […]

[1] = tested on: alkaline phosphatase and Osterix; experiment: Level of proteins expressed in osteoblasts (FIG. 6); format: cell-based; settings: FIG. 6, protein level
[2] = tested on: Runx2, alkaline phosphatase, Osteopontin, collagen type 1, DLX5, and Osterix; experiment: Expression of osteoblast-specific genes under a fluorescent microscope using antibodies (FIG. 5); format: cell-based; settings: cells treated with BFP 5, fluorescent microscope using antibodies
Text: An osteoblast-specific protein is expressed upon differentiation into osteoblasts. When the antibody to the protein was reacted to cells and the degree of binding was confirmed by a fluorescent microscope.

alkaline phosphatase = settings: at 1 μg/μL of BFP 5; RT-PCR / enzyme activity kit
Osterix = Osterix expression at varied concentrations of BFP 5 (FIG. 8); format: cell-based

PPRACPTARALCEIR (cysteine pairing not given here) [SDF-1d-derived peptide consisting of 15 amino acids, named bone forming peptide 5]
0.1 µg/mL: concentration of BFP 5 at which expression (Osterix) is at the highest level (Osterix)
strongest staining: Alizarin Red staining (mineralization accumulated via osteogenic differentiation) (mesenchymal stem cells)
strong expression: expression of VEGF, a protein associated with vascularization (VEGF) | expression of alkaline phosphatase (alkaline phosphatase)
strongly expressed: Osterix protein expressed in osteoblasts [1] | alkaline phosphatase protein expressed in osteoblasts [1] | expression of DLX5 [2] | expression of Osteopontin [2] | expression of Osterix [2] | expression of Runx2 [2] | expression of alkaline phosphatase [2] | expression of collagen type 1 [2]
